In the supplement of paper PMC10307832:

What was measured:
Experiment in all cases: relative viability (nuclei count vs DMSO), 5 days (fraction); higher = more cells survive
LU99A = system: LU99A
In short: (§1)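 Relative viability divides the nuclei count in treated wells by that in vehicle wells. Lung cancer cell lines were seeded in 1536-well plates, dosed by pin tool the next day, and fixed and stained after 5 days in one step with final 0.05% Triton X-100, 1% formaldehyde and 1 ug/ml Hoechst. Dosing was a single drug or a fixed anchor-drug dose plus five library-drug doses (not always all listed) in √10 steps, and values are medians of duplicate plates imaged at 4×.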

HCC-15 = system: HCC-15
In short: as §1

NCI-H522 = system: NCI-H522
In short: as §1

PC-14 = system: PC-14
In short: as §1

NCI-H838 = system: NCI-H838
In short: as §1

NCI-H2009 = system: NCI-H2009
In short: as §1

NCI-H2126 = system: NCI-H2126
In short: as §1

NCI-H358 = system: NCI-H358
In short: as §1

NCI-H1651 = system: NCI-H1651
In short: as §1

NCI-H2342 = system: NCI-H2342
In short: as §1

HARA = system: HARA
In short: as §1

SW 1573 = system: SW 1573
In short: as §1

NCI-H650 = system: NCI-H650
In short: as §1

UMC-11 = system: UMC-11
In short: as §1

NCI-H2347 = system: NCI-H2347
In short: as §1

HCC-78 = system: HCC-78
In short: as §1

EPLC-272H = system: EPLC-272H
In short: as §1

LC-2-ad = system: LC-2-ad
In short: as §1

NCI-H1915 = system: NCI-H1915
In short: as §1

NCI-H1993 = system: NCI-H1993
In short: as §1

NCI-H2085 = system: NCI-H2085
In short: as §1

NCI-H460 = system: NCI-H460
In short: as §1

ABC-1 = system: ABC-1
In short: as §1

COR-L23 = system: COR-L23
In short: as §1

SMILES: CC(C)Oc1cc(Nc2nc(N[C@@H](C)c3ccc(F)cn3)ncc2Cl)n[nH]1 [AZ23] + Nc1ncn([C@H]2C[C@H](O)[C@@H](CO)O2)c(=O)n1 [Decitabine] (partner 2 µM)
- relative viability (LU99A; first compound 0.01 µM): 1.03
- relative viability (LU99A; first compound 0.03162 µM): 0.85
- relative viability (LU99A; first compound 0.3162 µM): 0.829
- relative viability (HCC-15; first compound 0.01 µM): 0.654
- relative viability (HCC-15; first compound 0.03162 µM): 0.596
- relative viability (HCC-15; first compound 0.3162 µM): 0.663
- relative viability (NCI-H522; first compound 0.01 µM): 0.701
- relative viability (NCI-H522; first compound 0.03162 µM): 0.736
- relative viability (NCI-H522; first compound 0.3162 µM): 0.679
- relative viability (PC-14; first compound 0.01 µM): 0.191
- relative viability (PC-14; first compound 0.03162 µM): 0.213
- relative viability (PC-14; first compound 0.3162 µM): 0.263
- relative viability (NCI-H838; first compound 0.01 µM): 0.487
- relative viability (NCI-H838; first compound 0.03162 µM): 0.506
- relative viability (NCI-H838; first compound 0.3162 µM): 0.44
- relative viability (NCI-H2009; first compound 0.01 µM): 0.406
- relative viability (NCI-H2009; first compound 0.03162 µM): 0.356
- relative viability (NCI-H2009; first compound 0.3162 µM): 0.396
- relative viability (NCI-H2126; first compound 0.01 µM): 0.612
- relative viability (NCI-H2126; first compound 0.03162 µM): 0.615
- relative viability (NCI-H2126; first compound 0.3162 µM): 0.558
- relative viability (NCI-H358; first compound 0.01 µM): 0.261
- relative viability (NCI-H358; first compound 0.03162 µM): 0.214
- relative viability (NCI-H358; first compound 0.3162 µM): 0.179
- relative viability (NCI-H1651; first compound 0.01 µM): 0.621
- relative viability (NCI-H1651; first compound 0.03162 µM): 0.644
- relative viability (NCI-H1651; first compound 0.3162 µM): 0.618
- relative viability (NCI-H2342; first compound 0.01 µM): 0.716
- relative viability (NCI-H2342; first compound 0.03162 µM): 0.778
- relative viability (NCI-H2342; first compound 0.3162 µM): 0.649
- relative viability (HARA; first compound 0.01 µM): 0.621
- relative viability (HARA; first compound 0.03162 µM): 0.581
- relative viability (HARA; first compound 0.3162 µM): 0.504
- relative viability (SW 1573; first compound 0.01 µM): 0.699
- relative viability (SW 1573; first compound 0.03162 µM): 0.553
- relative viability (SW 1573; first compound 0.3162 µM): 0.612
- relative viability (NCI-H650; first compound 0.01 µM): 0.355
- relative viability (NCI-H650; first compound 0.03162 µM): 0.329
- relative viability (NCI-H650; first compound 0.3162 µM): 0.336
- relative viability (UMC-11; first compound 0.01 µM): 0.562
- relative viability (UMC-11; first compound 0.03162 µM): 0.747
- relative viability (UMC-11; first compound 0.3162 µM): 0.587
- relative viability (NCI-H2347; first compound 0.01 µM): 0.652
- relative viability (NCI-H2347; first compound 0.03162 µM): 0.571
- relative viability (NCI-H2347; first compound 0.3162 µM): 0.625
- relative viability (HCC-78; first compound 0.01 µM): 0.725
- relative viability (HCC-78; first compound 0.03162 µM): 0.777
- relative viability (HCC-78; first compound 0.3162 µM): 0.728
- relative viability (EPLC-272H; first compound 0.03162 µM): 0.344
- relative viability (EPLC-272H; first compound 0.3162 µM): 0.389
- relative viability (LC-2-ad; first compound 0.01 µM): 1.01
- relative viability (LC-2-ad; first compound 0.03162 µM): 0.862
- relative viability (LC-2-ad; first compound 0.3162 µM): 0.782
- relative viability (NCI-H1915; first compound 0.01 µM): 0.293
- relative viability (NCI-H1915; first compound 0.03162 µM): 0.272
- relative viability (NCI-H1915; first compound 0.3162 µM): 0.269
- relative viability (NCI-H1993; first compound 0.01 µM): 0.514
- relative viability (NCI-H1993; first compound 0.03162 µM): 0.626
- relative viability (NCI-H1993; first compound 0.3162 µM): 0.513
- relative viability (NCI-H2085; first compound 0.01 µM): 0.565
- relative viability (NCI-H2085; first compound 0.03162 µM): 0.539
- relative viability (NCI-H2085; first compound 0.3162 µM): 0.5
- relative viability (NCI-H460; first compound 0.01 µM): 0.489
- relative viability (NCI-H460; first compound 0.03162 µM): 0.514
- relative viability (NCI-H460; first compound 0.3162 µM): 0.55
- relative viability (ABC-1; first compound 0.01 µM): 1
- relative viability (ABC-1; first compound 0.03162 µM): 1.22
- relative viability (ABC-1; first compound 0.3162 µM): 0.96
- relative viability (COR-L23; first compound 0.01 µM): 0.361
- relative viability (COR-L23; first compound 0.03162 µM): 0.497
- relative viability (COR-L23; first compound 0.3162 µM): 0.449
